Source: PMC4532999 (Scientific Reports, 2015)
Positions of bridges follow the written chain, without caps; N, C: chain ends. Non-standard residues stand in square brackets, D forms with d. Residues, ends and D or L forms follow the SMILES beside them. No end group written: not given here. pY = N[C@@H](Cc1ccc(OP(=O)(O)O)cc1)C(=O)O

Key:
Abl kinase = Abl kinase (Homo sapiens, UniProt P00519); test: BacKin assay, inhibition of phosphorylation of abltide displayed on E. coli; format: biochemical; details: 32 μM peptide, Abl kinase 0.2 U/mL, 37 °C, 30 min
Abl kinase, sequence (P00519 whole entry): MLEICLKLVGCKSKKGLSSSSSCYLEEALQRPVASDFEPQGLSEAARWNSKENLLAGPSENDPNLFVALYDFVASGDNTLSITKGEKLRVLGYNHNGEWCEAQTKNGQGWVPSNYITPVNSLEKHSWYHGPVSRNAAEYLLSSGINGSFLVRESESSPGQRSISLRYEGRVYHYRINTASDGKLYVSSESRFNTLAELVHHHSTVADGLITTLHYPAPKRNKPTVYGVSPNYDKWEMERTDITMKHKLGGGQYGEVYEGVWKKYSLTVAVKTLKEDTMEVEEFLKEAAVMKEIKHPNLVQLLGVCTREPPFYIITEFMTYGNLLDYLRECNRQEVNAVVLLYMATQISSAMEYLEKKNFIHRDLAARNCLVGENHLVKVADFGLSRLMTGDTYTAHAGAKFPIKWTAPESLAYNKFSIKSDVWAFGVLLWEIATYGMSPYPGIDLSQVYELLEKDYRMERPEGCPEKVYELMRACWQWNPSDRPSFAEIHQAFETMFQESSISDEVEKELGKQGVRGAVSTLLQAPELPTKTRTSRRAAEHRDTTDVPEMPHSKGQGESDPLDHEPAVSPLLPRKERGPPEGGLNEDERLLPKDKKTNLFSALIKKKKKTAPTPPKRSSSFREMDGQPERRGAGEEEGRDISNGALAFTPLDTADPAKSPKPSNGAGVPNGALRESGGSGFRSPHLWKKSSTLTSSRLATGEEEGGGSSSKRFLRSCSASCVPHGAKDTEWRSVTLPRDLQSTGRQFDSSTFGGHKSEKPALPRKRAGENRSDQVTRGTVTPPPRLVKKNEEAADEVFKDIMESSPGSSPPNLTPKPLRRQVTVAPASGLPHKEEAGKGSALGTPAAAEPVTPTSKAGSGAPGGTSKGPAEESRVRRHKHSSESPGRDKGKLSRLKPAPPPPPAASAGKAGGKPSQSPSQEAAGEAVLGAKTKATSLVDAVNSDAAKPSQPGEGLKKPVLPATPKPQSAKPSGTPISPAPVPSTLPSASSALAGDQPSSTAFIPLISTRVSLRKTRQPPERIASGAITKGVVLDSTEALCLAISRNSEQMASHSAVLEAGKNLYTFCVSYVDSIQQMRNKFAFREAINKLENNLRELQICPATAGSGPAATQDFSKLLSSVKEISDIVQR

Serum stability assay = details: 100% human serum, 37 °C
Protocol: All peptides were tested at a final concentration of 30 μM in 100% human serum. […] Reactions were stopped at the stipulated times and the serum proteins in each sample were denatured and precipitated, followed by centrifugation at 17,000 g for 10 min to separate the serum proteins from peptide samples. […] The elution time for each peptide was determined by the PBS control from 0 time point. The percentage of peptide remaining at each time point was calculated using the height of the serum-treated peptide peak from time 0 as 100% recovery.

HeLa cells = tested on: HeLa cells
Protocol: Since BCR-ABL localizes predominantly in the cytoplasm, it is important to evaluate whether the designed peptides can be internalized into cells.
Human cervical cancer cells (HeLa) were seeded in 175-cm^2 tissue culture flasks (Falcon), in Dulbecco’s Modified Eagle’s Medium (DMEM) supplemented with 10% fetal bovine serum, 100 U/mL penicillin and […] streptomycin, until 80% confluent.
Cytotoxicity of the MTAbl peptides towards HeLa cells was evaluated before the cell internalization assay. The mammalian cell cytotoxicity assay was conducted using a method described earlier. HeLa cells were seeded the day before the assay in 96-well tissue culture-treated plates (2.5 × 10^3 cells/well). […] Peptide solutions were diluted 10-fold with serum-free medium and incubated with cells in triplicates for 2 h. […] Following incubation the peptide solutions were removed and aliquots of 10 μL of 0.02% (w/v) sterile resazurin (resazurin sodium salt, Sigma) were added to each well containing 100 μL of fresh medium. […] The absorbance of the plates was measured on a plate reader at 540 and 620 nm.

In the case of `CC[C@H](C)[C@@H]1NC(=O)[C@H](C)NC(=O)[C@H](CCC(=O)O)NC(=O)CNC(=O)[C@@H]2CSSC[C@@H]3NC(=O)[C@H](CC(=O)O)NC(=O)[C@H](CO)NC(=O)[C@H](CC(=O)O)NC(=O)[C@H](CCCNC(=N)N)NC(=O)[C@H](CCCNC(=N)N)NC(=O)[C@@H]4CSSC[C@H](NC(=O)[C@H]([C@@H](C)CC)NC(=O)[C@H](CSSC[C@H](NC(=O)[C@H](C)NC(=O)[C@H](Cc5ccccc5)NC(=O)[C@@H]5CCCN5C(=O)[C@H](C)NC(=O)[C@H](C)NC(=O)[C@H](Cc5ccc(O)cc5)NC1=O)C(=O)N1CCC[C@H]1C(=O)N[C@@H](CCCCN)C(=O)N[C@@H]([C@@H](C)CC)C(=O)N[C@@H](CC(C)C)C(=O)N[C@@H](CCCCN)C(=O)N[C@@H](CCCCN)C(=O)N4)NC(=O)[C@H](C)NC(=O)CNC(=O)[C@@H]1CCCN1C3=O)C(=O)N[C@@H](CCCNC(=N)N)C(=O)NCC(=O)N[C@@H](CC(N)=O)C(=O)NCC(=O)N[C@@H](Cc1ccc(O)cc1)C(=O)N2` [MTAbl01] (cyclo(AAPFACPKILKKCRRDSDCPGACICRGNGYCGEAIY); disulfide 6-23, 13-25, 19-31), the “percentage of Abl kinase inhibition” value (Abl kinase) was 75%.

In the case of `CC[C@H](C)[C@@H]1NC(=O)[C@H](C)NC(=O)[C@H](CCC(=O)O)NC(=O)CNC(=O)[C@@H]2CSSC[C@@H]3NC(=O)[C@H](CC(=O)O)NC(=O)[C@H](CO)NC(=O)[C@H](CC(=O)O)NC(=O)[C@H](CCCNC(=N)N)NC(=O)[C@H](CCCNC(=N)N)NC(=O)[C@@H]4CSSC[C@H](NC(=O)[C@H]([C@@H](C)CC)NC(=O)[C@H](CSSC[C@H](NC(=O)CNC(=O)[C@H](C)NC(=O)[C@H](Cc5ccccc5)NC(=O)[C@@H]5CCCN5C(=O)[C@H](C)NC(=O)[C@H](C)NC(=O)[C@H](Cc5ccc(O)cc5)NC1=O)C(=O)N1CCC[C@H]1C(=O)N[C@@H](CCCCN)C(=O)N[C@@H]([C@@H](C)CC)C(=O)N[C@@H](CC(C)C)C(=O)N[C@@H](CCCCN)C(=O)N[C@@H](CCCCN)C(=O)N4)NC(=O)[C@H](C)NC(=O)CNC(=O)[C@@H]1CCCN1C3=O)C(=O)N[C@@H](CCCNC(=N)N)C(=O)NCC(=O)N[C@@H](CC(N)=O)C(=O)NCC(=O)N[C@@H](Cc1ccc(O)cc1)C(=O)N2` [MTAbl02] (cyclo(AAPFAGCPKILKKCRRDSDCPGACICRGNGYCGEAIY); disulfide 7-24, 14-26, 20-32), the “percentage of Abl kinase inhibition” value (Abl kinase) was 90%.

For `CC[C@H](C)[C@@H]1NC(=O)[C@H](C)NC(=O)[C@H](CCC(=O)O)NC(=O)[C@@H]2CSSC[C@@H]3NC(=O)[C@H](CC(=O)O)NC(=O)[C@H](CO)NC(=O)[C@H](CC(=O)O)NC(=O)[C@H](CCCNC(=N)N)NC(=O)[C@H](CCCNC(=N)N)NC(=O)[C@@H]4CSSC[C@H](NC(=O)[C@H]([C@@H](C)CC)NC(=O)[C@H](CSSC[C@H](NC(=O)CNC(=O)[C@H](C)NC(=O)[C@H](Cc5ccccc5)NC(=O)[C@@H]5CCCN5C(=O)[C@H](C)NC(=O)[C@H](C)NC(=O)[C@H](Cc5ccc(O)cc5)NC1=O)C(=O)N1CCC[C@H]1C(=O)N[C@@H](CCCCN)C(=O)N[C@@H]([C@@H](C)CC)C(=O)N[C@@H](CC(C)C)C(=O)N[C@@H](CCCCN)C(=O)N[C@@H](CCCCN)C(=O)N4)NC(=O)[C@H](C)NC(=O)CNC(=O)[C@@H]1CCCN1C3=O)C(=O)N[C@@H](CCCNC(=N)N)C(=O)NCC(=O)N[C@@H](CC(N)=O)C(=O)NCC(=O)N[C@@H](Cc1ccc(O)cc1)C(=O)N2` [MTAbl03] (cyclo(AAPFAGCPKILKKCRRDSDCPGACICRGNGYCEAIY); disulfide 7-24, 14-26, 20-32), the “percentage of Abl kinase inhibition” value (Abl kinase) was 50%.

For `CC[C@H](C)[C@@H]1NC(=O)[C@H](C)NC(=O)[C@H](CCC(=O)O)NC(=O)[C@@H]2CSSC[C@@H]3NC(=O)[C@H](CC(=O)O)NC(=O)[C@H](CO)NC(=O)[C@H](CC(=O)O)NC(=O)[C@H](CCCNC(=N)N)NC(=O)[C@H](CCCNC(=N)N)NC(=O)[C@@H]4CSSC[C@H](NC(=O)[C@H]([C@@H](C)CC)NC(=O)[C@H](CSSC[C@H](NC(=O)[C@H](CCCCN)NC(=O)[C@H](C)NC(=O)[C@H](Cc5ccccc5)NC(=O)[C@@H]5CCCN5C(=O)[C@H](C)NC(=O)[C@H](C)NC(=O)[C@H](Cc5ccc(O)cc5)NC1=O)C(=O)N1CCC[C@H]1C(=O)N[C@@H](CCCCN)C(=O)N[C@@H]([C@@H](C)CC)C(=O)N[C@@H](CC(C)C)C(=O)N[C@@H](CCCCN)C(=O)N[C@@H](CCCCN)C(=O)N4)NC(=O)[C@H](C)NC(=O)CNC(=O)[C@@H]1CCCN1C3=O)C(=O)N[C@@H](CCCNC(=N)N)C(=O)NCC(=O)N[C@@H](CC(N)=O)C(=O)NCC(=O)N[C@@H](Cc1ccc(O)cc1)C(=O)N2` [MTAbl04] (cyclo(AAPFAKCPKILKKCRRDSDCPGACICRGNGYCEAIY); disulfide 7-24, 14-26, 20-32), the “percentage of Abl kinase inhibition” value (Abl kinase) was ~ 50%.

In the case of `CC[C@H](C)[C@@H]1NC(=O)[C@H](C)NC(=O)[C@H](CCC(=O)O)NC(=O)CNC(=O)[C@@H]2CSSC[C@@H]3NC(=O)[C@H](CC(=O)O)NC(=O)[C@H](CO)NC(=O)[C@H](CC(=O)O)NC(=O)[C@H](CCCNC(=N)N)NC(=O)[C@H](CCCNC(=N)N)NC(=O)[C@@H]4CSSC[C@H](NC(=O)[C@H]([C@@H](C)CC)NC(=O)[C@H](CSSC[C@H](NC(=O)[C@H](CCCCN)NC(=O)[C@H](C)NC(=O)[C@H](Cc5ccccc5)NC(=O)[C@@H]5CCCN5C(=O)[C@H](C)NC(=O)[C@H](C)NC(=O)[C@H](Cc5ccc(O)cc5)NC1=O)C(=O)N1CCC[C@H]1C(=O)N[C@@H](CCCCN)C(=O)N[C@@H]([C@@H](C)CC)C(=O)N[C@@H](CC(C)C)C(=O)N[C@@H](CCCCN)C(=O)N[C@@H](CCCCN)C(=O)N4)NC(=O)[C@H](C)NC(=O)CNC(=O)[C@@H]1CCCN1C3=O)C(=O)N[C@@H](CCCNC(=N)N)C(=O)NCC(=O)N[C@@H](CC(N)=O)C(=O)NCC(=O)N[C@@H](Cc1ccc(O)cc1)C(=O)N2` [MTAbl05] (cyclo(AAPFAKCPKILKKCRRDSDCPGACICRGNGYCGEAIY); disulfide 7-24, 14-26, 20-32), the “percentage of Abl kinase inhibition” value (Abl kinase) was ~ 90%.

For `CC[C@H](C)[C@@H]1NC(=O)[C@H](C)NC(=O)[C@H](CCC(=O)O)NC(=O)CNC(=O)[C@@H]2CSSC[C@@H]3NC(=O)[C@H](CC(=O)O)NC(=O)[C@H](CO)NC(=O)[C@H](CC(=O)O)NC(=O)[C@H](CCCNC(=N)N)NC(=O)[C@H](CCCNC(=N)N)NC(=O)[C@@H]4CSSC[C@H](NC(=O)[C@H]([C@@H](C)CC)NC(=O)[C@H](CSSC[C@H](NC(=O)[C@H](CCCNC(=N)N)NC(=O)[C@H](C)NC(=O)[C@H](Cc5ccccc5)NC(=O)[C@@H]5CCCN5C(=O)[C@H](C)NC(=O)[C@H](C)NC(=O)[C@H](Cc5ccc(OP(=O)(O)O)cc5)NC1=O)C(=O)N1CCC[C@H]1C(=O)N[C@@H](CCCCN)C(=O)N[C@@H]([C@@H](C)CC)C(=O)N[C@@H](CC(C)C)C(=O)N[C@@H](CCCCN)C(=O)N[C@@H](CCCCN)C(=O)N4)NC(=O)[C@H](C)NC(=O)CNC(=O)[C@@H]1CCCN1C3=O)C(=O)N[C@@H](CCCNC(=N)N)C(=O)NCC(=O)N[C@@H](CC(N)=O)C(=O)NCC(=O)N[C@@H](Cc1ccc(O)cc1)C(=O)N2` [MTAbl12] (cyclo(AAPFARCPKILKKCRRDSDCPGACICRGNGYCGEAI[pY]); disulfide 7-24, 14-26, 20-32), the “stability in human serum (in words; comparison to MCoTI-II at 24 h)” value (Serum stability assay; 24 h, one-way ANOVA, three replicates) was “lower stability”.

In the case of `CC[C@H](C)[C@@H]1NC(=O)[C@H](C)NC(=O)[C@H](CCC(=O)O)NC(=O)CNC(=O)[C@@H]2CSSC[C@@H]3NC(=O)[C@H](CC(=O)O)NC(=O)[C@H](CO)NC(=O)[C@H](CC(=O)O)NC(=O)[C@H](CCCNC(=N)N)NC(=O)[C@H](CCCNC(=N)N)NC(=O)[C@@H]4CSSC[C@H](NC(=O)[C@H]([C@@H](C)CC)NC(=O)[C@H](CSSC[C@H](NC(=O)[C@H](CCCNC(=N)N)NC(=O)[C@H](CCCNC(=N)N)NC(=O)[C@H](CCCNC(=N)N)NC(=O)[C@H](C)NC(=O)[C@H](Cc5ccccc5)NC(=O)[C@@H]5CCCN5C(=O)[C@H](C)NC(=O)[C@H](C)NC(=O)[C@H](Cc5ccc(O)cc5)NC1=O)C(=O)N1CCC[C@H]1C(=O)N[C@@H](CCCNC(=N)N)C(=O)N[C@@H]([C@@H](C)CC)C(=O)N[C@@H](CC(C)C)C(=O)N[C@@H](CCCNC(=N)N)C(=O)N[C@@H](CCCCN)C(=O)N4)NC(=O)[C@H](C)NC(=O)CNC(=O)[C@@H]1CCCN1C3=O)C(=O)N[C@@H](CCCNC(=N)N)C(=O)NCC(=O)N[C@@H](CC(N)=O)C(=O)NCC(=O)N[C@@H](Cc1ccc(O)cc1)C(=O)N2` [MTAbl15] (cyclo(AAPFARRRCPRILRKCRRDSDCPGACICRGNGYCGEAIY); disulfide 9-26, 16-28, 22-34), the “concentration up to which no cytotoxicity towards HeLa cells” value (HeLa cells) was over 64 µM.

For “EAIYAAPFAKKK [abltide, reference compound]”, the “time to complete degradation in human serum” value (Serum stability assay; 30 μM peptide, RP-HPLC) was at most 1 h.
